Data as given in patent US20170368018A1, “USE OF ELLAGIC ACID DIHYDRATE IN PHARMACEUTICAL FORMULATIONS TO REGULATE BLOOD GLUCOSE LEVELS” (HALO LIFE SCIENCE, LLC, priority 2014, published 2017).

Columns and labels:
[1] = tested on: female SWV mice with STZ induced diabetes; assay: Weight loss and blood glucose in mice with STZ induced diabetes; format: in vivo, mouse; conditions: STZ diabetic mice, thirty days
Description: Weight loss and blood glucose in diabetes induced mice treated with ellagic acid was determined and weight loss and blood glucose in mice treated with ellagic acid dihydrate may be determined by the following procedures. Induction of Diabetes: Diabetes is induced in mice by intraperitoneal injection with Streptozotocin (STZ 40 mg/kg) daily for five days. The mice are considered hyperglycemic when the glucose level of each dam is above 200 mg/dL. The mice are fasted for 4 hours before STZ injection and glucose measurement. Treatment: The mice are treated daily for thirty days with ellagic acid or control in the form of a supplemental pill homogenized and suspended in 25% water solution of Cremophor EL. The mice are treated for one month via gavage using the human equivalent dose of 122.4 mg pill/kg of subject (40.6 mg ellagic acid/kg of the subject), the human equivalent does of 40.6 mg ellagic acid/kg of the subject using 98% pure ellagic acid, or control vehicle (25% water solution of Cremophor EL). The human equivalent dose is calculated as described in Example 8. Treatments would start two weeks after the last STZ injection in which hyperglycemia is confirmed in the diabetic mice. The mice would be weighed daily and glucose levels would be measured in fasted animals every five days.

mice = assay: Activity level in mice; format: in vivo, mouse; conditions: observation by the Applicant in treated mice
Text: Activity levels in mice treated with ellagic acid dihydrate may be quantified by several procedures, such as those outlined in Turri, M. et al.; QTL Analysis Identifies Multiple Behavioral Dimensions in Ethological Tests of Anxiety in Laboratory Mice; Current Biology; 2001; 11(10): 725-734. Two examples of procedures taught therein follows. Gross Locomotor Activity in Home Cage: Mice are caged singly several days prior to home cage activity monitoring and subsequent testing. Activity in home cages are measured during the first 2 hours of the dark cycle on two consecutive days. Two infrared photo emitter-detector pairs, located outside the clear plastic home cage that divide the cage into three equal areas, are used to record gross locomotor activity on the floor of the home cage as the animal breaks the photo beams. The beam-break activity score consists of the square root of the number of beam breaks for each detector summed across the two test days. Magnitude of Activity in Home Cage: Mice are caged singly several days prior to home cage activity monitoring and subsequent testing. Activity in home cages are measured during the first 2 hours of the dark cycle on two consecutive days. An infrared motion detector located above the top of the home cage is employed to converts all motion sensed within the home cage into arbitrary units, based on the magnitude of activity detected.

female SWV mice = assay: Weight loss and blood glucose in mice, thirty days daily gavage; format: in vivo, mouse; conditions: for body weight lost on average: supplemental pill, gavage daily
Description: Weight loss and blood glucose in mice treated with ellagic acid was determined and weight loss and blood glucose in mice treated with ellagic acid dihydrate may be determined by the following procedure. Mice are treated daily for thirty days with ellagic acid or control in the form of a supplemental pill homogenized and suspended in 25% water solution of Cremophor EL. The mice are treated via gavage using the human equivalent dose (LD) of 122.4 mg pill/kg of subject (40.6 mg ellagic acid/kg of the subject), 10× higher dose (HD) of 1224 mg pill/kg of the subject (406 mg ellagic acid/kg of the subject), or control vehicle (25% water solution of Cremophor EL). The LD and HD dose amounts are calculated based on the following assumptions: a human dose is one 603 mg (200 mg ellagic acid) pill/day, taken orally; the average weight of a person is 60 kg, thus, the average dose for a human equals approximately 9.95 mg of the pill (3.3 mg ellagic acid)/kg daily; a mouse equivalent dose requires 12.3 times the human dose per kg. The mice are weighed and treated daily, and blood glucose level are measured every two days for a total one month period.

MEF cells [2] = assay: Glucose uptake, 2-NBDG labeling, flow cytometry, MEFs; format: cell-based, mouse
Description: Cellular assays were performed using mouse myoblast C2C12 cells and MEF cells. […] Increased glucose uptake was indicated as increasing signal of 2-NBDG ([…]) in cells. Glucose uptake assays were carried out in a final incubation volume of 50 μl consisting of, 2-NBDG), (100 μM) in 1× Phosphate Buffered Saline w/Ca+, Mg+ (PBS++). The same buffer was used for washing cells. Insulin was used as a positive control. All testing compounds were prepared in […] and diluted 1:100 for a final concentration of 0.1% DMSO (vehicle). Cells were culture to 70-90% confluence and then washed twice with PBS++. Cells were incubated for 30 minutes at 37° C. in PBS++. Nuclear stain, HCS CellMask stain (blue, Invitrogen), and/or testing compounds (ellagic acid dihydrate, insulin, or vehicle) were added. Cells were incubated for 30 min at 37° C. Cells were washed twice with PBS++and incubated with 2-NBDG for 10 minutes. Cells were washed thrice with PBS++and then imaged in PBS++. Alternatively, the final PBS wash was removed and cells were incubated with Accutase (Invitrogen) for 10 min at 37° C., neutralized with 10% FBS in 1× PBS, and analyzed by flow cytometry. An additional experiment was performed to measure glucose uptake in C2C12 cells exposed to metformin, insulin and ellagic acid dihydrate 2 (batch 2). FIG. 5C. Glucose uptake in ellagic acid dihydrate treated cell culture was measured and compared to glucose uptake under insulin or ellagic acid treatment. […] Flow cytometry results were run in triplicate with 1000 cells per batch.

MEF cells [3] = assay: Glucose uptake, 2-NBDG labeling, high-content imaging (Operetta), MEFs; format: cell-based, mouse
Description: Increased glucose uptake was indicated as increasing signal of 2-NBDG ([…]) in cells. Glucose uptake assays were carried out in a final incubation volume of 50 μl consisting of, 2-NBDG), (100 μM) in 1× Phosphate Buffered Saline w/Ca+, Mg+ (PBS++). The same buffer was used for washing cells. Insulin was used as a positive control. All testing compounds were prepared in 10% DMSO and diluted 1:100 for a final concentration of 0.1% DMSO (vehicle). Cells were culture to 70-90% confluence and then washed twice with PBS++. Cells were incubated for 30 minutes at 37° C. in PBS++. Nuclear stain, HCS CellMask stain (blue, Invitrogen), and/or testing compounds (ellagic acid dihydrate, insulin, or vehicle) were added. Cells were incubated for 30 min at 37° C. Cells were washed twice with PBS++and incubated with 2-NBDG for 10 minutes. Cells were washed thrice with PBS++and then imaged in PBS++. Alternatively, the final PBS wash was removed and cells were incubated with Accutase (Invitrogen) for 10 min at 37° C., neutralized with 10% FBS in 1× PBS, and analyzed by flow cytometry. An additional experiment was performed to measure glucose uptake in C2C12 cells exposed to metformin, insulin and ellagic acid dihydrate 2 (batch 2). FIG. 5C. Glucose uptake in ellagic acid dihydrate treated cell culture was measured and compared to glucose uptake under insulin or ellagic acid treatment. […] Flow cytometry results were run in triplicate with 1000 cells per batch.

[4] = tested on: AKT / Phos AKT in C2C12 cells; assay: AKT:phos AKT ratio by immunocytochemistry, high-content imaging; format: cell-based, mouse; conditions: C2C12, serum starved 1 hr, treated 30 minutes, 4 nM-4 μM, FIG. 8
Description: Stimulation of AKT pathways and MAPK pathways in ellagic acid dihydrate, metformin, and insulin treated cell cultures was performed. Insulin stimulates glucose uptake into cells by increasing GLUT4 activation, and AKT, specifically phos-AKT, signaling alters GLUT4 translocation. […] Cellular assays were performed using mouse myoblast C2C12 cells. […] Serum starved cells (1 hr) were treated for 30 minutes with each of the tested compounds.

[5] = tested on: p44/42 MAPK / Phos p44/42 MAPK in C2C12 cells; assay: p44/42 MAPK:phos p44/42 MAPK ratio by immunocytochemistry, high-content imaging; format: cell-based, mouse; conditions: C2C12, treated 30 minutes, 0.04 nM, FIG. 9
Description: Stimulation of AKT pathways and MAPK pathways in ellagic acid dihydrate, metformin, and insulin treated cell cultures was performed. Insulin stimulates glucose uptake into cells by increasing GLUT4 activation, and AKT, specifically phos-AKT, signaling alters GLUT4 translocation. […] Cellular assays were performed using mouse myoblast C2C12 cells. Relative protein levels of AKT:phos AKT and p44/42 MAPK:phos p44/42 MAPK were determined.
Serum starved cells (1 hr) were treated for 30 minutes with each of the tested compounds. Ratios of phosphorylated to non-phosphorylated proteins were determined using immunocytochemistry labeling (anti-AKT, anti-Phos AKT; or anti-p44/42 MAPK, anti-Phos p44/42 MAPK) on a high-content imaging system (Operetta, Perkin Elmer) using the fluorescent signal of anti-rabbit Alexa 647. Increased phosphorylation is indicated as decrease in signal of AKT:Phos AKT ratio (log2 scale) and p44/42 MAPK:Phos p44/42 MAPK ratio (log2 scale) relative to vehicle treated cells.

[6] = tested on: GLUT4-GFP in mouse myoblast C2C12 cells; assay: Localization of glucose transporter GLUT4-GFP, time-lapse confocal microscopy; format: cell-based; conditions: C2C12, 4000 nM
Description: Induction of glucose transporter, GLUT-4, in ellagic acid dihydrate treated cell cultures was studied. Cellular assays were performed using mouse myoblast C2C12 cells. The cells were infected with a fusion glucose transporter 4 green fluorescent protein (GLUT4-GFP). This protein allows the visualization of GLUT4 by imaging the GFP under fluorescent time-lapse microscopy. Frames were compiled to produce time-lapse images of cellular changes with no treatment or treatment with insulin. The localization of glucose transporter (GLUT4-GFP) was performed in final incubation volume of 505 μL, consisting of 500 μL of Hank's Buffer (Invitrogen) and 5 μl of tested compounds. Insulin was used as positive controls and vehicle (0.1% DMSO) as the negative control. All test compounds were prepared in 10% DMSO and diluted 1:100 for a final concentration of 0.1% DMSO (vehicle). The cells were rinsed in Hank's Buffer thrice and then incubated in Hank's Buffer at 37° C. for one hour. The test compounds were added (ellagic acid dihydrate, insulin, or vehicle) and the cells were imaged using laser-confocal microscopy (Leica TCS SP5 X) with FITC fluorescent filters to determine changes in GLUT4-GFP localization. Time-lapse images (TIF) were collected and post-processed using Image-J (NIH) for video construction.

[7] = tested on: mouse myoblast C2C12 cells; assay: Glucose uptake, 2-NBDG labeling, flow cytometry, C2C12; format: cell-based
Description: Cellular assays were performed using mouse myoblast C2C12 cells and MEF cells. […] Increased glucose uptake was indicated as increasing signal of 2-NBDG ([…]) in cells. Glucose uptake assays were carried out in a final incubation volume of 50 μl consisting of, 2-NBDG), (100 μM) in 1× Phosphate Buffered Saline w/Ca+, Mg+ (PBS++). The same buffer was used for washing cells. Insulin was used as a positive control. All testing compounds were prepared in 10% DMSO and diluted 1:100 for a final concentration of 0.1% DMSO (vehicle). Cells were culture to 70-90% confluence and then washed twice with PBS++. Cells were incubated for 30 minutes at 37° C. in PBS++. Nuclear stain, HCS CellMask stain (blue, Invitrogen), and/or testing compounds (ellagic acid dihydrate, insulin, or vehicle) were added. Cells were incubated for 30 min at 37° C. Cells were washed twice with PBS++and incubated with 2-NBDG for 10 minutes. Cells were washed thrice with PBS++and then imaged in PBS++. Alternatively, the final PBS wash was removed and cells were incubated with Accutase (Invitrogen) for 10 min at 37° C., neutralized with 10% FBS in 1× PBS, and analyzed by flow cytometry. An additional experiment was performed to measure glucose uptake in C2C12 cells exposed to metformin, insulin and ellagic acid dihydrate 2 (batch 2). FIG. 5C.

Compound | body weight lost on average ([1]; human equivalent dose, daily) | mean glucose level values, treated versus control mice [1] | activity levels (mice) | blood glucose (female SWV mice; all treatments (LD, HD) compared to control) | body weight lost on average (female SWV mice; 10× higher dose (HD, 406 mg ellagic acid/kg)) | body weight lost on average (female SWV mice; human equivalent dose (LD, 40.6 mg ellagic acid/kg)) | glucose uptake per unit dose (MEF cells [2]; in vitro conditions, summary statement) | dose effect for increasing glucose uptake (MEF cells [3]) | AKT:Phos AKT ratio (log2 scale) relative to vehicle treated cells [4] | p44/42 MAPK:Phos p44/42 MAPK ratio relative to vehicle treated cells [5] | GLUT4-GFP around the cell nucleus [6] | ruffling of filopodia at the surface of the cell [6] | increased glucose uptake relative to vehicle treated cells (MEF cells [2]; 400 nM exposure, fibroblasts, FIG. 4B) [%] | dose effect for increasing glucose uptake (MEF cells [2]; MEFs, flow cytometry, 4 μM-0.04 nM) | glucose uptake (2-NBDG signal) relative to vehicle (MEF cells [2]; MEFs, flow cytometry, FIG. 4A) | glucose uptake (signal of 2-NBDG) in comparison to vehicle (MEF cells [3]) | increase in glucose uptake in myoblasts relative to fibroblasts ([7]; C2C12 (FIGS. 5A, 5B) versus MEFs (FIGS. 4A, 4B)) [×] | dose effect for increasing glucose uptake ([7]; C2C12, flow cytometry, 4 μM-0.04 nM) | glucose uptake (2-NBDG signal) relative to vehicle ([7]; C2C12, flow cytometry, FIG. 5A) | p44/42 MAPK:Phos p44/42 MAPK ratio relative to vehicle treated cells ([5]; 400 nM)
O=c1oc2c(O)c(O)cc3c(=O)oc4c(O)c(O)cc1c4c23 [ellagic acid] | 11.7 % of body weight | no significant differences | increased activity levels | Normal levels of blood glucose | 10.4 % of body weight | 8.9 % of body weight | little to no glucose uptake per unit dose | no such dose effect |  |  |  |  |  |  |  |  |  |  |  | 
CN(C)C(=N)N=C(N)N [metformin] |  |  |  |  |  |  |  |  | increase in AKT relative to phosphorylation of AKT | increased the ratio of p44/42 MAPK |  |  |  |  |  |  |  |  |  | 
insulin: Insulin was used as a positive control [reference compound] |  |  |  |  |  |  |  | showed a dose effect | −0.5 |  | decrease in GLUT4-GFP around the cell nucleus | rapid production of numerous projections | 32 | showed a dose effect | significant increase | showed an increase in glucose uptake | ~4 | showed a dose effect | significant increase | increase in p44/42 MAPK
